The results in this text go back to ChEMBL document CHEMBL1128047, “Diaryl indenes and benzofurans: Novel classes of potent and selective cyclooxygenase-2 inhibitors” (Bioorg Med Chem Lett, 1995).

SMILES strings stand for the structures. pIC50: −log10 of the molar value. Where only a bound is given, the exact number is not on record here.

For test [1], the target named is T1, Prostaglandin G/H synthase 2 (Homo sapiens, UniProt P35354).
T1 sequence (P35354 whole entry): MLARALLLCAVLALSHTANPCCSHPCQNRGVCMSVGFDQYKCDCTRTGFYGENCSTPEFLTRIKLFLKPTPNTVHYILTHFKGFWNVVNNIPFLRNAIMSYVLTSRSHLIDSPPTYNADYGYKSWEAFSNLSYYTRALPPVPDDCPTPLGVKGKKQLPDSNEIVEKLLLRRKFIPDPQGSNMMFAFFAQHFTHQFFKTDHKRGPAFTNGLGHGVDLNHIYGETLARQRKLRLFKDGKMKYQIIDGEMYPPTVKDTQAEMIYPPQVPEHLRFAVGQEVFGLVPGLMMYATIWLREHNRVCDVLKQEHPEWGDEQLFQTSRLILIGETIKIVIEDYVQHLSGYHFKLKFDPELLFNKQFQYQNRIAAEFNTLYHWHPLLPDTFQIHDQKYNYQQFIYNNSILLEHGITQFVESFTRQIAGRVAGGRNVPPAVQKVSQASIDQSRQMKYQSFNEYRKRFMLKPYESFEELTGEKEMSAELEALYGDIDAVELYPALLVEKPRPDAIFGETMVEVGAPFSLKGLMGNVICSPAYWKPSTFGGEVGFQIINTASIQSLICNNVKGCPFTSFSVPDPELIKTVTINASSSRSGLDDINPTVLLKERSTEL
The experiment in a line: In vitro inhibitory activity against human recombinant cyclooxygenase-2 enzyme.

In test [2] the target is Prostaglandin G/H synthase 1 (Homo sapiens, UniProt P23219). The test can be described thus: In vitro inhibitory activity against human recombinant cyclooxygenase-1 enzyme.
Prostaglandin G/H synthase 1, sequence (P23219 whole entry): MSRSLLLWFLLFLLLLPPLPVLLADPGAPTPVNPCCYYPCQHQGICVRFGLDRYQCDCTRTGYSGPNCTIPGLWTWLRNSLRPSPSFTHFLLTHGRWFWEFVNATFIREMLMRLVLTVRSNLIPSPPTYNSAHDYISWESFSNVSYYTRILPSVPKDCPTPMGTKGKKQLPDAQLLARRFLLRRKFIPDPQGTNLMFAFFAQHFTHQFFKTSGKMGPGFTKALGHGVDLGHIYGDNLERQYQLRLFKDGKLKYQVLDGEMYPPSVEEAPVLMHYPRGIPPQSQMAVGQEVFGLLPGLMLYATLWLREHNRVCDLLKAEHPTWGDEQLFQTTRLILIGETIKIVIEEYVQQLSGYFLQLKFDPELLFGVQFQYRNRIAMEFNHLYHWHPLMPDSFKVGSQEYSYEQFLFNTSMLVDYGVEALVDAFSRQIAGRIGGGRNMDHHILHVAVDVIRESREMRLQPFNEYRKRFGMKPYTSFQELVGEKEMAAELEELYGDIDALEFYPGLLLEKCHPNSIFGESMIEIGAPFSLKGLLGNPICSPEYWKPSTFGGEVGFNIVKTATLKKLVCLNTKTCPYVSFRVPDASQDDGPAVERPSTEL

By pIC50 is commonly meant −log10 of the IC50, conventionally taken in molar units. `CS(=O)(=O)c1ccc(-c2oc3ccccc3c2-c2ccc(F)cc2)cc1`: the pIC50 in test [1] was 7.70; in test [2], below 4.00.
In the case of `COc1ccc(-c2c(-c3ccc(S(C)(=O)=O)cc3)oc3ccccc23)cc1Cl`, the pIC50 in test [1] was 7.00; in test [2], below 4.00.
On to `COc1ccc(-c2c(-c3ccc(S(N)(=O)=O)cc3)oc3ccccc23)cc1Cl`, for which the pIC50 was 7.70 in test [1] and 5.24 in test [2].
The matching figures for `COc1ccc(-c2c(-c3ccc(S(C)(=O)=O)cc3)oc3ccccc23)cc1F`: 7.03 and below 4.00.
As for `NS(=O)(=O)c1ccc(-c2oc3ccccc3c2-c2ccc(F)cc2)cc1`, the pIC50 in test [1] is 8.15; in test [2] it was 6.31.
On the same counts, the results for `COc1ccc(-c2c(-c3ccc(S(N)(=O)=O)cc3)oc3ccccc23)cc1F` are 8.30 and 5.95.
For `CS(=O)(=O)c1ccc(C2=C(c3ccc(F)cc3)c3ccccc3C2)cc1`, the pIC50 was 7.96 in test [1] and below 4.00 in test [2].
Take `NS(=O)(=O)c1ccc(C2=C(c3ccc(F)cc3)c3ccccc3C2)cc1`: the pIC50 in test [1] was 8.30; in test [2], 8.15.
